This assay has as its system thrombospondin-1 (TSP-1) in HUVEC. Kind of assay: TSP-1 protein expression in HUVEC by Western blot. Format: cell-based, human. The following applies: prolonged exposure and higher drug concentrations of 5-FU, FIG. 3. The protocol:
Thrombospondin (TSP) is a macromolecule with various functions, and among its isoforms, TSP-1 acts as an angiogenesis inhibitor. The following experiment was conducted to examine changes in TSP-1 expression in response to different concentrations of 5-FU.
Western blot analysis was conducted to confirm the expression of TSP-1 protein in the HUVEC (human umbilical vein endothelial cell) cell line.
HUVECs cultured in petri dishes were lysed using a buffer containing 50 mM Tris (pH 8.0), 150 mM NaCl, 1% Nonidet P-40, 0.5% sodium deoxycholate (SDC), 0.1% sodium dodecyl sulfate (SDS), and 1× protease inhibitor cocktail. The lysates were incubated on ice for 30 minutes, followed by centrifugation at 14,000 g for 10 minutes to collect the supernatant.
Protein quantification was performed using a bicinchoninic acid (BCA) protein assay kit (Pierce Chemical, Rockford, IL, USA). A total of 30 μg of protein was subjected to electrophoresis on a 10% SDS-polyacrylamide gel and subsequently transferred onto a nitrocellulose membrane. The membrane was blocked with blocking milk for 1 hour, then incubated with the same TSP-1 antibody used for immunostaining at room temperature for 1 hour. After three washes with Tris buffer containing 0.1% Tween 20 at 15-minute intervals, the membrane was incubated with a secondary antibody specific to the primary antibody at room temperature for 1 hour. […]
A general note: A western blot detects proteins with antibodies after separation by electrophoresis.

With `O=c1[nH]cc(F)c(=O)[nH]1` [5-FU, 5-fluorouracil], the TSP-1 expression levels result is reported as “increased expression levels”.
